Earlier results, collected in patent US20140161876A1, “LIPOSOME-CONTAINING PREPARATION UTILIZING DISSOLUTION AID, AND METHOD FOR PRODUCING SAME” (KONICA MINOLTA, INC., priority 2011, published 2014).
≈ marks a conversion by molar mass, not a printed value.

Details: drug encapsulated, Tables 3 and 4

Row | SMILES | Solubility in water
1 | Nc1nc(=O)c2c([nH]1)NC[C@H](CNc1ccc(C(=O)N[C@@H](CCC(=O)O)C(=O)O)cc1)N2C=O [levofolinate] | 20 mg/mL (≈ 42.2 mM)
2 | COc1cc([C@@H]2c3cc4c(cc3[C@@H](O[C@@H]3O[C@@H]5CO[C@@H](C)O[C@H]5[C@H](O)[C@H]3O)[C@H]3COC(=O)[C@H]23)OCO4)cc(OC)c1O [etoposide] | 0.5 mg/mL (≈ 0.85 mM)
